How the values were obtained:
HeLa pLuc/705 cells = assay: HeLa pLuc/705 assay (luciferase splice-correction readout of ASO activity with enhancer co-treatment); format: cell-based; conditions: for increase in 2′-MOE PS activity: 2′-MOE PS fixed at 2.5 μM; for increase in 2′-OMe PS activity: 2′-OMe PS fixed at 5 μM; for increase in PPMO activity: PPMO fixed at 5 μM; for enhancer concentration range that significantly enhances ASO activity on co-treatment of cells: cell culture co-treatment with ASO or macromolecule; for enhancing performance in screen of Selleck Chemicals FDA-approved drug library: primary screen 10 μM, secondary screen 0.1-20 μM; for enhancement of unmodified PMO activity: varied PMO concentration, enhancer fixed (febuxostat 2.5 μM; lonafarnib 250 nM), manual format (96 wells)
From the text: The Hela pLuc/705 assay provides a positive readout of ASO's splice-modifying activity. Because messenger RNA (mRNA) splicing occurs in the cell's nucleus, the assay's output is indicative of the effectiveness of delivery of splice-modifying oligomers into the nucleus, which necessarily implies effective cytosolic delivery. The assay utilizes a genetically modified HeLa cell line that has been stably transfected with a gene containing coding sequence for a reporter enzyme (luciferase) and a mutated intron inserted within the coding sequence. The mutated intron cannot be properly excised resulting in an in-frame stop codon in the luciferase coding sequence, which prevents expression of functional luciferase. Two conditions must be met to produce the functional enzyme. First, an ASO must enter the cell nucleus to block the mutated splice site, thus restoring normal splicing and read through of the reporter message. The result is mRNA encoding functional reporter protein. Second, but equally important, the cells must be viable to carry out RNA processing and translation so that reporter protein activity is produced.
Correction through successful nuclear delivery of a splice-modifying ASO restores luciferase expression, which is then quantified by measurement of cell lysate luminescence with addition of luciferin substrate. This assay is a standard measure of intracellular ASO delivery within the field.
The HeLa pLuc/705 assay was miniaturized in order to allow it to be performed in […] cell culture plates, enabling the assay to be adapted to the high-throughput screening setting. The aim was to screen small molecules, with an emphasis on FDA-approved drugs, for ability to enhance ASO splice-modifying activity, which would be indicated by an increase in luminescence relative to cells treated with the ASO alone. In order to validate the approach, a positive control molecule was utilized which was already known to increase ASO activity when used alongside the ASO. Initially, a peptide intended for use in cell culture was used. Subsequently, febuxostat was used as a positive control.
The first screened compounds were the compounds in the Selleck Chemicals FDA-approved drug library for enhancing activity. This library contains 1430 compounds. Library compounds were dispensed to 10 μM in the plate wells. […] These sixteen compounds were evaluated for enhancing performance over the concentration range 0.1-20 μM. This enabled validation of the primary screening results, as well as to evaluate relative performance of hits through observation of concentration-dependent activity. Hits were evaluated based on relative enhancing performance, and they were also qualitatively evaluated for suitability for future therapeutic use, considering the identity, indication and approval status of the compound.
HeLa pLuc/705 cells were seeded into 384-well plates ([…] well volume) and incubated for 24 hours. At 24 hours, DMSO solutions of OAEs were added to subconfluent cells using an HP D300 Digital Dispenser, followed by addition of a testing ASO or DMSO. Cells were incubated for 24 hours. At 24 hours treatment time, growth medium was removed from the cells and […] of a lysis buffer/luciferin solution was added to each well. Luminescence was measured using a BioTek plate reader 5 minutes following addition of the lysis buffer/luciferin solution. Background luminescence values (generated using OAE only/DMSO-matched controls) were subtracted from experimental values. These methods apply to the commonly employed format for the assay using the HP D300 Digital Dispenser, with slight variations used for the high-throughput and manual formats.

[1] = mice, intraperitoneal administration at 10 mg/kg; cited from earlier work
[2] = degrades to tizoxanide; cited from earlier work
[3] = in vivo, po; cited from earlier work
[4] = varied ASO concentration, enhancer fixed (resveratrol 10 μM)

| SMILES | increase in 2′-OMe PS activity (HeLa pLuc/705 cells; enhancer at 10 μM) | enhancement of PPMO activity in screen of NIH Clinical Collection (HeLa pLuc/705 cells; PPMO) | increase in PPMO activity (HeLa pLuc/705 cells; enhancer at 10 μM) | enhancer concentration range that significantly enhances ASO activity on co-treatment of cells (HeLa pLuc/705 cells) | enhancing performance in screen of Selleck Chemicals FDA-approved drug library (HeLa pLuc/705 cells; PPMO) | enhancement of unmodified PMO activity (HeLa pLuc/705 cells) | other results |
| --- | --- | --- | --- | --- | --- | --- | --- |
| Nc1nc2ccc(Cl)cc2c2nc(-c3ccco3)nn12 [CGS-15943] | 3.2 fold | significant enhancement | 4 fold | 0.25 to 20 µM | – | – | increase in 2′-MOE PS activity (HeLa pLuc/705 cells; enhancer at 10 μM): 2.6 fold; adverse effects [1]: no reported adverse effects |
| Cc1nc(-c2ccc(OCC(C)C)c(C#N)c2)sc1C(=O)O [febuxostat] | 6.4 fold | – | 7.9 fold | 0.25 to 20 µM | strong performers | found to enhance the activity | increase in 2′-MOE PS activity (HeLa pLuc/705 cells; enhancer at 5 μM): 3 fold; result in screen of MicroSource Discovery Spectrum library (HeLa pLuc/705 cells; PPMO): strong hit |
| NC(=O)N1CCC(CC(=O)N2CCC([C@H]3c4ncc(Br)cc4CCc4cc(Cl)cc(Br)c43)CC2)CC1 [lonafarnib] | – | – | – | 0.1 to 20 µM | strong performers | found to enhance the activity | increase in 2′-MOE PS activity (HeLa pLuc/705 cells; enhancer at 250 nM): 2.1 fold; increase in 2′-OMe PS activity (HeLa pLuc/705 cells; enhancer at 250 nM): 3 fold; increase in PPMO activity (HeLa pLuc/705 cells; enhancer at 250 nM): 2.6 fold |
| CC(=O)Oc1ccccc1C(=O)Nc1ncc([N+](=O)[O-])s1 [nitazoxanide] | – | significant enhancement | – | 5 to 20 µM | – | – | degradation in human plasma [2]: degrade very rapidly |
| Oc1ccc(/C=C/c2cc(O)cc(O)c2)cc1 [resveratrol] | 1.5 fold | – | 2.1 fold | 1 to 20 µM | found to be an OAE | – | enhancement of 2′-MOE PS activity (HeLa pLuc/705 cells; fixed ASO concentration, varied enhancer concentration): did not show enhancement; enhancement of 2′-MOE PS ASO activity (HeLa pLuc/705 cells; [4]): did show enhancement; enhancement of 2′-OMe PS ASO activity (HeLa pLuc/705 cells; [4]): failed to enhance activity; maximum plasma concentration [3]: 2.4 µM |

Source: patent US20250241917A1, “SMALL MOLECULE ENHANCERS OF ANTISENSE OLIGO ACTIVITY” (Oregon State University, priority 2022, published 2025)
